Experimental data from the supplement of paper PMC10307832.

Experiments:
Test in all cases: relative viability (nuclei count vs DMSO), 5 days (fraction); higher = more cells survive
BI-D1870 + Lapatinib = compound: CC(C)CCN1c2nc(Nc3cc(F)c(O)c(F)c3)ncc2N(C)C(=O)C1C [BI-D1870] + CS(=O)(=O)CCNCc1ccc(-c2ccc3ncnc(Nc4ccc(OCc5cccc(F)c5)c(Cl)c4)c3c2)o1 [Lapatinib] (partner 2 µM)
In short: (§1)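 Relative viability equals treated-well nuclei counts divided by vehicle-well nuclei counts. Counts came from 4× images of lung cancer cell lines grown in 1536-well plates for 5 days after pin-tool dosing on the day after seeding. Dosing used one drug alone or a fixed anchor-drug dose plus five library-drug doses (not always all listed) in √10 steps, and values are medians of duplicate plates.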

BI-D1870 + Olaparib = compound: CC(C)CCN1c2nc(Nc3cc(F)c(O)c(F)c3)ncc2N(C)C(=O)C1C [BI-D1870] + O=C(c1cc(Cc2n[nH]c(=O)c3ccccc23)ccc1F)N1CCN(C(=O)C2CC2)CC1 [Olaparib] (partner 8 µM)
In short: as §1

Zebularine + Tozasertib = compound: O=c1ncccn1[C@@H]1O[C@H](CO)[C@@H](O)[C@H]1O [Zebularine] + Cc1cc(Nc2cc(N3CCN(C)CC3)nc(Sc3ccc(NC(=O)C4CC4)cc3)n2)n[nH]1 [Tozasertib] (partner 0.1 µM)
In short: as §1

Zebularine + Decitabine = compound: O=c1ncccn1[C@@H]1O[C@H](CO)[C@@H](O)[C@H]1O [Zebularine] + Nc1ncn([C@H]2C[C@H](O)[C@@H](CO)O2)c(=O)n1 [Decitabine] (partner 2 µM)
In short: as §1

Cell Line | relative viability (BI-D1870 + Lapatinib; first compound 0.04 µM) | relative viability (BI-D1870 + Lapatinib; first compound 0.1265 µM) | relative viability (BI-D1870 + Lapatinib; first compound 0.4 µM) | relative viability (BI-D1870 + Lapatinib; first compound 1.265 µM) | relative viability (BI-D1870 + Lapatinib; first compound 4 µM) | relative viability (BI-D1870 + Olaparib; first compound 0.04 µM) | relative viability (BI-D1870 + Olaparib; first compound 0.1265 µM) | relative viability (BI-D1870 + Olaparib; first compound 0.4 µM) | relative viability (BI-D1870 + Olaparib; first compound 1.265 µM) | relative viability (BI-D1870 + Olaparib; first compound 4 µM) | relative viability (Zebularine + Tozasertib; first compound 1 µM) | relative viability (Zebularine + Tozasertib; first compound 3.162 µM) | relative viability (Zebularine + Tozasertib; first compound 10 µM) | relative viability (Zebularine + Tozasertib; first compound 31.62 µM) | relative viability (Zebularine + Tozasertib; first compound 100 µM) | relative viability (Zebularine + Decitabine; first compound 1 µM) | relative viability (Zebularine + Decitabine; first compound 3.162 µM) | relative viability (Zebularine + Decitabine; first compound 10 µM) | relative viability (Zebularine + Decitabine; first compound 31.62 µM) | relative viability (Zebularine + Decitabine; first compound 100 µM)
NCI-H2347 | 1.12 | 0.977 | 0.745 | 0.921 | 1.03 | 0.547 | 0.589 | 0.552 | 0.633 | 0.487 | 0.632 | 0.482 | 0.51 | 0.405 | 0.309 | 0.658 | 0.598 | 0.544 | 0.575 | 0.371
NCI-H2405 | 1.16 | 1.03 | 1.05 | 1.32 | 1.1 | 0.874 | 0.826 | 0.89 | 0.802 | 0.814 | 0.758 | 0.81 | 0.704 | 0.724 | 0.485 | 0.731 | 0.699 | 0.671 | 0.765 | 0.58
NCI-H3122 | 1.02 | 0.985 | 0.983 | 1.01 | 0.967 | 0.576 | 0.562 | 0.566 | 0.631 | 0.588 | 0.391 | 0.401 | 0.262 | 0.626 | 0.375 | 0.507 | 0.475 | 0.411 | 0.411 | 0.532
PC-3 [JPC-3] | 0.455 | 0.425 | 0.463 | 0.52 | 0.385 | 1.25 | 1.08 | 1.08 | 0.966 | 0.831 | 0.963 | 0.924 | 0.485 | 0.668 | 0.473 | 0.781 | 0.817 | 0.755 | 0.842 | 0.659
PC-14 | 0.36 | 0.301 | 0.343 | 0.395 | 0.269 | 0.364 | 0.251 | 0.273 | 0.197 | 0.138 | 0.479 | 0.513 | 0.1 | 0.0922 | 0.0781 | 0.193 | 0.135 | 0.117 | 0.0981 | 0.0826
RERF-LC-KJ | 0.886 | 0.783 | 0.8 | 0.821 | 0.863 | 1.09 | 0.831 | 0.936 | 0.914 | 0.306 | 0.533 | 0.433 | 0.458 | 0.553 | 0.473 | 0.828 | 0.733 | 0.587 | 0.85 | 0.751
SK-LU-1 | 0.922 | 0.894 | 0.791 | 0.793 | 0.462 | 0.497 | 0.377 | 0.41 | 0.427 | 0.35 | 0.378 | 0.34 | 0.254 | 0.302 | 0.29 | 0.583 | 0.652 | 0.478 | 0.675 | 0.495
SK-MES-1 | 0.468 | 0.443 | 0.417 | 0.509 | 0.356 | 0.77 | 0.561 | 0.731 | 0.363 | 0.19 | 1.02 | 0.991 | 0.599 | 0.611 | 0.248 | 0.442 | 0.397 | 0.321 | 0.286 | 0.261
SW 1573 | 1.13 | 1.16 | 1.11 | 1.25 | 1.14 | 0.602 | 0.415 | 0.432 | 0.419 | 0.191 | 0.223 | 0.163 | – | 0.137 | 0.148 | 0.525 | 0.424 | 0.341 | 0.582 | 0.555
